Test results taken from patent US9586931B2 (Merck Sharp & Dohme Corp., priority 2012, dated 2017).
“And” between values parts separate entries of the source, which are not always exact repeats. Equal values may be shown once.

Target: T1, recombinant human GST-Syk (Homo sapiens, UniProt P43405)
T1 construct: purchased Carna Biosciences 08-176
Test: Homogeneous Time-Resolved Fluorescence (HTRF) assay for the recombinant human Syk enzyme
Format: biochemical
Details: recombinant human GST-Syk 5 pM, ATP 25 μM, 10-dose titration 10 μM to 0.508 nM; read-out: rhSYK Activity IC50
In short: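 Detection used time-resolved fluorescence 30 min after adding a quench mix (40 mM EDTA, 15 mM Tris pH 7.5, 0.01% Tween 20) containing 2 nM Europium anti-pTyr antibody and 70 nM streptavidin-APC. This followed 45 min of room-temperature peptide phosphorylation by recombinant GST-tagged human Syk.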

Compound | IC50
Cc1cc(Nc2cc(C(F)F)ccn2)nc(-c2cn(CC3OC(=O)NC3C)nn2)c1 (single isomer, unassigned) [Example 7.43, 5-{[4-(6-{[4-(difluoromethyl)pyridin-2-yl]amino}-4-methylpyridin-2-yl)-1H-1,2,3-triazol-1-yl]methyl}-4-methyl-1,3-oxazolidin-2-one] | 3.8 nM
Cc1cc(Nc2cc(C(F)(F)F)ccn2)nc(-c2cn(C[C@H](C)CO)nn2)c1 [Example 5.82, (2S)-2-methyl-3-[4-(4-methyl-6-{[4-(trifluoromethyl)pyridin-2-yl]amino}pyridin-2-yl)-1H-1,2,3-triazol-1-yl]propan-1-ol] | 7.9 nM
Cc1cc(Nc2cc(C(F)(F)F)ccn2)nc(-c2cn(CC(O)C(F)(F)F)nn2)c1 (racemic) [Example 5.83, 1,1,1-trifluoro-3-[4-(4-methyl-6-{[4-(trifluoromethyl)pyridin-2-yl]amino}pyridin-2-yl)-1H-1,2,3-triazol-1-yl]propan-2-ol] | 4.4 nM
Cc1cc(Nc2nccc(C(F)(F)F)n2)cc(-c2cn(CC(=O)N3[C@@H](C)COC[C@@H]3C)nn2)c1 (relative stereo) [Example 5.47, N-[3-(1-{2-[trans-3,5-dimethylmorpholin-4-yl]-2-oxoethyl}-1H-1,2,3-triazol-4-yl)-5-methylphenyl]-4-(trifluoromethyl)pyrimidin-2-amine] | 80.2 nM
Cc1cc(Nc2ncc(F)c(C(F)F)n2)cc(-c2cn(Cc3ccc(O)nc3)nn2)c1 [Example 32, 5-((4-(3-((4-(difluoromethyl)-5-fluoropyrimidin-2-yl)amino)-5-methylphenyl)-1H-1,2,3-triazol-1-yl)methyl)pyridin-2-ol] | 6.8 nM
Cc1cc(Nc2cc(C(F)F)ccn2)nc(-c2cn(CC3OC(=O)NC3C)nn2)c1 (single isomer, unassigned) [Example 7.44, 5-{[4-(6-{[4-(difluoromethyl)pyridin-2-yl]amino}-4-methylpyridin-2-yl)-1H-1,2,3-triazol-1-yl]methyl}-4-methyl-1,3-oxazolidin-2-one] | 18 nM
Cc1cc(Nc2nccc(C(F)(F)F)n2)cc(-c2cn(CC(=O)N3COCC3(C)C)nn2)c1 [Example 5.68, N-(3-{1-[2-(4,4-dimethyl-1,3-oxazolidin-3-yl)-2-oxoethyl]-1H-1,2,3-triazol-4-yl}-5-methylphenyl)-4-(trifluoromethyl)pyrimidin-2-amine] | 114 nM
COC(=O)CCn1cc(-c2cc(C)cc(Nc3cc(C(F)(F)F)ccn3)n2)nn1 [Example 5.10, methyl 3-[4-(4-methyl-6-{[4-(trifluoromethyl)pyridin-2-yl]amino}pyridin-2-yl)-1H-1,2,3-triazol-1-yl]propanoate] | 40.4 nM
CCOc1ccnc(Nc2cc(C)cc(-c3cn(C(C)c4ccc(C(=O)O)cc4)nn3)n2)c1 (centres unmarked) [Example 2.9, 4-[1-(4-{6-[(4-ethoxypyridin-2-yl)amino]-4-methylpyridin-2-yl}-1H-1,2,3-triazol-1-yl)ethyl]benzoic acid] | 58.7 nM
Cc1cc(Nc2nccc(C)n2)cc(-c2cn(CC(C)(O)C(C)(C)O)nn2)c1 (centres unmarked) [Example 21.21, 2,3-dimethyl-1-(4-{3-methyl-5-[(4-methylpyrimidin-2-yl)amino]phenyl}-1H-1,2,3-triazol-1-yl)butane-2,3-diol] | 191 nM
Cc1cc(Nc2cc(C(F)(F)F)ccn2)nc(-c2cn(Cc3c[nH]cn3)nn2)c1 [Example 5.108, 6-[1-(1H-imidazol-4-ylmethyl)-1H-1,2,3-triazol-4-yl]-4-methyl-N-[4-(trifluoromethyl)pyridin-2-yl]pyridin-2-amine] | 2.5 nM
Cc1cc(Nc2cc(C(F)(F)F)ccn2)nc(-c2cn(C(C)C(=O)O)nn2)c1 (racemic) [Example 5.43, 2-[4-(4-methyl-6-{[4-(trifluoromethyl)pyridin-2-yl]amino}pyridin-2-yl)-1H-1,2,3-triazol-1-yl]propanoic acid] | 35.2 nM and 17 nM
CCOC(=O)C(O)C(O)Cn1cc(-c2cc(C)cc(Nc3cc(C(F)(F)F)ccn3)n2)nn1 (centres unmarked) [Example 10.9, ethyl 2,3-dihydroxy-4-[4-(4-methyl-6-{[4-(trifluoromethyl)pyridin-2-yl]amino}pyridin-2-yl)-1H-1,2,3-triazol-1-yl]butanoate] | 33.1 nM
CCC(O)Cn1cc(-c2cc(C)cc(Nc3cc(C(F)(F)F)ccn3)n2)nn1 (racemic) [Example 5.5, 1-[4-(4-methyl-6-{[4-(trifluoromethyl)pyridin-2-yl]amino}pyridin-2-yl)-1H-1,2,3-triazol-1-yl]butan-2-ol] | 15.8 nM
Cc1cc(Nc2cc(C(F)(F)F)ccn2)nc(-c2cn(C(C)c3ccc(C(N)=O)cc3)nn2)c1 (centres unmarked) [Example 1.16, 4-{1-[4-(4-methyl-6-{[4-(trifluoromethyl)pyridin-2-yl]amino}pyridin-2-yl)-1H-1,2,3-triazol-1-yl]ethyl}benzamide] | 13.3 nM
Cc1cc(Nc2cc(C(F)(F)F)ccn2)nc(-c2cn(CC(=O)N3CCC(C(=O)O)CC3)nn2)c1 (racemic) [Example 5.80, 1-{[4-(4-methyl-6-{[4-(trifluoromethyl)pyridin-2-yl]amino}pyridin-2-yl)-1H-1,2,3-triazol-1-yl]acetyl}piperidine-4-carboxylic acid] | 24.5 nM

Compound | IC50
Cc1cc(Nc2cc(C(F)F)ccn2)nc(-c2cn(CC(C)(O)CO)nn2)c1 (centres unmarked) [Example 21.40, 3-(4-(6-((4-(difluoromethyl)pyridin-2-yl)amino)-4-methylpyridin-2-yl)-1H-1,2,3-triazol-1-yl)-2-methylpropane-1,2-diol] | 5.9 nM
Cc1cc(Nc2nccc(C(F)F)n2)cc(-c2cn(CC3CNCCO3)nn2)c1 (single isomer, unassigned) [Example 22.1, 4-(Difluoromethyl)-N-(3-methyl-5-(1-(morpholin-2-ylmethyl)-1H-1,2,3-triazol-4-yl)phenyl) pyrimidin-2-amine] | 14.3 nM
Cc1cc(Nc2cc(C(F)(F)F)ccn2)nc(-c2cn(CC(=O)N3CCCC3)nn2)c1 [Example 5.87, 4-methyl-6-[1-(2-oxo-2-pyrrolidin-1-ylethyl)-1H-1,2,3-triazol-4-yl]-N-[4-(trifluoromethyl)pyridin-2-yl]pyridin-2-amine] | 81.2 nM
Cc1cc(Nc2cc(C(F)(F)F)ccn2)nc(-c2cn(C(C)c3ccc(C(=O)O)cc3)nn2)c1 (racemic) [Example 5.41, 4-{1-[4-(4-methyl-6-{[4-(trifluoromethyl)pyridin-2-yl]amino}pyridin-2-yl)-1H-1,2,3-triazol-1-yl]ethyl}benzoic acid] | 1.1 nM
Cc1cc(Nc2cc(C(C)F)ccn2)nc(-c2cn(CC(C)(O)C(C)(C)O)nn2)c1 (centres unmarked) [Example 21.32, 1-[4-(6-{[4-(1-fluoroethyl)pyridin-2-yl]amino}-4-methylpyridin-2-yl)-1H-1,2,3-triazol-1-yl]-2,3-dimethylbutane-2,3-diol] | 22.2 nM
Cc1cc(Nc2cc(C(F)(F)F)ccn2)nc(-c2cn(C3CCC(C(=O)O)C(C)(C)C3)nn2)c1 (single isomer, unassigned) [Example 9.1, (R or S) 2,2-Dimethyl-4-[4-(4-methyl-6-{[4-(trifluoromethyl)pyridin-2-yl]amino}pyridin-2-yl)-1 H-1,2,3-triazol-1-yl]cyclohexanecarboxylic acid] | 3.7 nM
Cc1cc(Nc2nccc(C(F)F)n2)cc(-c2cn(C3CCCCC3O)nn2)c1 (centres unmarked) [Example 4.34] | 4.1 nM
Cc1cc(Nc2cc(C(F)(F)F)ccn2)nc(-c2cn([C@@H](C)c3ccc(C(=O)O)cc3)nn2)c1 [Example 9.7, 4-{(1S)-1-[4-(4-methyl-6-{[4-(trifluoromethyl)pyridin-2-yl]amino}pyridin-2-yl)-1H-1,2,3-triazol-1-yl]ethyl}benzoic acid] | 3.3 nM
Cc1cc(Nc2cc(C(F)(F)F)ccn2)nc(-c2cn(C[C@H](O)CC#N)nn2)c1 [Example 5.44, (3R)-3-hydroxy-4-[4-(4-methyl-6-{[4-(trifluoromethyl)pyridin-2-yl]amino}pyridin-2-yl)-1H-1,2,3-thiazol-1-yl]butanenitrile] | 4.1 nM and 3.18 nM
Cc1cc(Nc2cc(C(F)F)ccn2)nc(-c2cn(CC3CNCCO3)nn2)c1 (single isomer, unassigned) [Example 26.2, N-(4-(difluoromethyl)pyridin-2-yl)-4-methyl-6-(1-(morpholin-2-ylmethyl)-1H-1,2,3-triazol-4-yl)pyridin-2-amine] | 3.3 nM
CCC(CO)n1cc(-c2cc(C)cc(Nc3cc(C(F)(F)F)ccn3)n2)nn1 (centres unmarked) [Example 13.9, 2-[4-(4-methyl-6-{[4-(trifluoromethyl)pyridin-2-yl]amino}pyridin-2-yl)-1H-1,2,3-triazol-1-yl]butan-1-ol] | 2.9 nM
Cc1cc(Nc2cc(OC3CCCCC3)ccn2)nc(-c2cn(C(C)c3ccc(C(=O)O)cc3)nn2)c1 (centres unmarked) [Example 2.6, 4-{1-[4-(6-{[4-(cyclohexyloxy)pyridin-2-yl]amino}-4-methylpyridin-2-yl)-1H-1,2,3-triazol-1-yl]ethyl}benzoic acid] | 26.6 nM
Cc1cc(Nc2cc(C(F)(F)F)ccn2)nc(-c2cn(C(C)C(=O)NCCc3cccc4ccccc34)nn2)c1 (centres unmarked) [Example 1.44, 2-[4-(4-methyl-6-{[4-(trifluoromethyl)pyridin-2-yl]amino}pyridin-2-yl)-1H-1,2,3-triazol-1-yl]-N-(2-naphthalen-1-ylethyl)propanamide] | 626 nM
Cc1cc(Nc2cc(C(F)(F)F)ccn2)nc(-c2cn(C[C@H](O)CC(N)=O)nn2)c1 [Example 12.1] | 14.8 nM
Cc1cc(Nc2ncc(F)c(C(F)F)n2)cc(-c2cn(CC3OC(=O)NC3C)nn2)c1 (single isomer, unassigned) [Example 7.37, 5-{[4-(3-{[4-(difluoromethyl)-5-fluoropyrimidin-2-yl]amino}-5-methylphenyl)-1H-1,2,3-triazol-1-yl]methyl}-4-methyl-1,3-oxazolidin-2-one] | 15.9 nM
CCOC(=O)/C=C/Cn1cc(-c2cc(C)cc(Nc3cc(C(F)(F)F)ccn3)n2)nn1 [Example 5.34, ethyl (2E)-4-[4-(4-methyl-6-{[4-(trifluoromethyl)pyridin-2-yl]amino}pyridin-2-yl)-1H-1,2,3-triazol-1-yl]but-2-enoate] | 171 nM
